The METLIN SMRT retention time set (Domingo-Almenara et al. 2019)

Assay: gradient 5% acetonitrile 3 min, to 50% in 2 min, to 85% in 15 min, held 3 min, 100 µL/min
Settings: column: Zorbax Extend-C18 2.1 x 50 mm; eluents: water / acetonitrile, 0.1% formic acid
In short: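 Each retention time is based on an adduct peak selected computationally and verified by manual inspection. Measurements used HPLC–quadrupole time-of-flight mass spectrometry in positive and negative ionization mode on mixtures of ~100 pure standards. Chromatography ran on a Zorbax Extend-C18 column (2.1 × 50 mm, 1.8 μm) at 100 μL/min with water and acetonitrile, each containing 0.1% formic acid, and dead and dwell volumes of 40 μL and 900 μL.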

RP-LC retention time | SMILES
718 s | CN(Cc1ccccc1)C(=O)C1CCCN(c2nnc(N3CCCC3=O)s2)C1 (stereo unspecified)
1210 s | CCc1ccc(NC(=O)c2cc3sc(Cl)cc3n2C)cc1
974 s | Cc1cc(C(=O)Nc2ccccc2I)n(-c2ccccc2)n1
723 s | COCc1nc2cccnc2n1C1CCN(C(=O)Nc2cc(Cl)c(OC)cc2OC)CC1
596 s | O=C1CCCc2cc(S(=O)(=O)NCC3CCN(Cc4ccccc4F)CC3)ccc2N1
589 s | C=CCc1c(C)c(C#N)c2nc3ccccc3n2c1NCCOCCO
862 s | CCOC(=O)c1cc2n(n1)CC(C)(C(=O)NC1CCCC1)N(c1cccc(F)c1)C2=O (stereo unspecified)
883 s | Cn1c(=O)sc2cc(S(=O)(=O)N3CCC(C(=O)NCc4ccccc4Cl)CC3)ccc21
1010 s | COC(=O)C1=C(C)NC(C)=C(C(=O)OC(C)(C)CN(C)CCC(c2ccccc2)c2ccccc2)C1c1cccc([N+](=O)[O-])c1 (stereo unspecified)
678 s | COc1ccc(C(=O)N2C[C@@H]3C[C@H]2C[C@@H]3NC(=O)c2ccccc2)cc1OC
588 s | O=C(CCc1nnc2ccc(NCc3ccccc3)nn12)N1CCN(c2ccccn2)CC1
712 s | Cc1ccc(C)c(NC(=O)N2CC(n3cnnc3-c3ccccc3)C2)c1
574 s | CC(=O)Nc1ccc(CCc2nc3ccc(C(=O)NC(C)C)cc3[nH]2)cc1
1030 s | Cc1c(-c2ccnc(N3CCOCC3)n2)cnc2nc(-c3ccc(Cl)cc3)nn12
624 s | Cn1c(=O)c(SCC(=O)NC2CCN(Cc3ccccc3)CC2)nc2ccccc21
838 s | Cc1noc(-c2ccc(OC3CN(C(=O)Nc4cccc(F)c4)C3)cc2)n1
782 s | COc1ccccc1CCC(=O)N1C[C@@H]2C[C@H](NC(=O)c3cccs3)[C@H]1C2
778 s | CC(C)(C)c1ccc(C(=O)Nc2nc3ccccc3[nH]2)cc1
912 s | CC(=O)N1c2ccc(S(=O)(=O)N3CCCCCC3)cc2CC1C(=O)NCc1ccccc1 (stereo unspecified)
704 s | COCCc1noc(-c2ccc(=O)n(CC(=O)Nc3cc(F)ccc3C)c2)n1
964 s | CCOC(=O)C1CCN(c2c(S(=O)(=O)c3ccccc3)cnc3ccc(C)cc23)CC1

Further lines, the compound ahead of its results:

SMILES | RP-LC retention time
CCCCC(CC)C(=O)Nc1nc(-c2ccc(Cl)cc2)cs1 (stereo unspecified) | 1240 s
Cc1cccc(Nc2nc(-c3ccncc3)cs2)c1 | 734 s
COCCNC(=O)C1CCN(c2nccc(C)n2)CC1 | 561 s
Cc1ccc(N2CC(c3noc(-c4ccc(C#N)cc4)n3)CC2=O)cc1 (stereo unspecified) | 947 s
COc1ccc(NC(C)=O)cc1NS(=O)(=O)C1CC1 | 607 s
COc1ccc(-c2nc(C3CC(=O)N(c4ccc(F)c(Cl)c4)C3)no2)cc1 (stereo unspecified) | 1050 s
COc1ccc(-c2csc(Nc3cccnc3)n2)cc1 | 656 s
CNC(=O)C1CCCN(c2nc3ncn(CC(=O)Nc4ccc5c(c4)OCO5)c(=O)c3s2)C1 (stereo unspecified) | 1110 s
COc1cc(NC(=O)N2CCC(C)(C(=O)NCc3ccc(C)cc3)CC2)cc(OC)c1OC | 765 s
Cc1cccc(NC(=O)Cn2c(-c3cnccn3)nc(C)c(C)c2=O)c1C | 743 s
Cc1cc(C)cc(NC(=O)C(=O)NCC(c2ccc3c(c2)CCCN3C)N2CCOCC2)c1 (stereo unspecified) | 601 s
CCCN1C(=O)CN(S(C)(=O)=O)CC1(C)C(=O)NCc1ccc(Cl)cc1 (stereo unspecified) | 758 s
Cc1nc(-n2c(C)ccc2C)sc1C(=O)NC1CC1 | 850 s
COC(=O)c1c(C)c(C(=O)C(C)N(CC(C)C)C(=O)c2ccc(Cl)cc2)c(C)n1C (stereo unspecified) | 1080 s
CCNS(=O)(=O)c1cc(-c2csc(C)n2)ccc1OC | 784 s
